These results are taken from ChEMBL document CHEMBL2424535, “Fragment-based discovery of focal adhesion kinase inhibitors” (Bioorg Med Chem Lett, 2013).

Series [1] can be described thus: Partition coefficient, log P of the compound. It counts as physicochemical. The following applies: octanol/water.
Series [2] is described as follows: Lipophilicity, log D of the compound at pH 7.4. It counts as physicochemical. The following applies: buffer.

In general, logP refers to a log measure of how a compound divides between an organic and an aqueous phase. What is called logD is lipophilicity at a set pH, counting ionised and neutral species. On to `Cc1ccc(-n2nc(C(C)(C)C)cc2NC(=O)Nc2ccc(-n3cnc4c(N)ncnc43)cc2)cc1`, for which the logP in series [1] (read-out: logP) worked out at 3.98. In addition, the logD in series [2] (read-out: logD) worked out at 4.05.

On to `Cc1ccc(-n2nc(C(C)(C)C)cc2NC(=O)Nc2ccc(-n3cnc(C)c3)cc2)cc1`, for which the logP in series [1] (read-out: logP) turned out to be 4.83. In addition, the logD in series [2] (read-out: logD) came out at 4.08.

As for `Cc1ccc(-n2nc(C(C)(C)C)cc2NC(=O)Nc2ccc(-n3ccnc3)cc2)cc1`, the logP in series [1] (read-out: logP) is 4.35. Besides, the logD in series [2] (read-out: logD) is 3.85.

In the case of `Cc1ccc(-n2nc(C(C)(C)C)cc2NC(=O)Nc2ccc(-n3cnnc3)cc2)cc1`, the logP in series [1] (read-out: logP) turned out to be 4.07. The logD in series [2] (read-out: logD) amounted to 3.94.

For `Cc1ccc(-n2nc(C(C)(C)C)cc2NC(=O)Nc2ccc(-c3nnc(S)n3C)cc2)cc1`, the logP in series [1] is given as 2.86. In addition, the logD in series [2] is reported as 3.89.

With `Cc1ccc(-n2nc(C(C)(C)C)cc2NC(=O)Nc2ccc(-n3cnc(Cl)c3Cl)cc2)cc1`, in series [1] (read-out: logP), the logP is more than 5.4. Besides, in series [2] (read-out: logD), the logD amounted to 3.96.

For `Cc1ccc(-n2nc(C(C)(C)C)cc2NC(=O)Nc2ccc(-n3cncc3C)cc2)cc1`, in series [1] (read-out: logP), the log partition coefficient (logP) is 4.6. For the same compound, the logD in series [2] (read-out: logD) was 4.33.

As to `Cc1ccc(-n2nc(C(C)(C)C)cc2NC(=O)Nc2ccc(-c3csnn3)cc2)cc1`, the logP in series [1] (read-out: logP) stood at 5.15. The logD in series [2] (read-out: logD) amounted to 4.58.

Regarding `Cc1ccc(-n2nc(C(C)(C)C)cc2NC(=O)Nc2ccc(-n3nnnc3C)cc2)cc1`, the logP in series [1] (read-out: logP) was determined as 3.86. For the same compound, the logD in series [2] (read-out: logD) stood at 3.81.

As for `Cc1ccc(-n2nc(C(C)(C)C)cc2NC(=O)Nc2ccc(-c3cnco3)cc2)cc1`, in series [1] (read-out: logP), the logP stood at 4.96. Also, in series [2] (read-out: logD), the logD amounted to 4.49.

Take `Cc1ccc(-n2nc(C(C)(C)C)cc2NC(=O)Nc2ccc(-n3cnnn3)cc2)cc1`: the logP in series [1] (read-out: logP) is 4.14. Further, the logD in series [2] (read-out: logD) was 3.79.

On to `Cc1ccc(-n2nc(C(C)(C)C)cc2NC(=O)Nc2ccc(-c3nncn3C)cc2)cc1`, for which the logP in series [1] (read-out: logP) was 3.34. For the same compound, the logD in series [2] (read-out: logD) was 3.21.

Take `Cc1ccc(-n2nc(C(C)(C)C)cc2NC(=O)Nc2ccc(-c3cccnc3)cc2)cc1`: in series [1] (read-out: logP), the logP was determined as 4.84. Also, the log distribution coefficient (logD) in series [2] (read-out: logD) was determined as 4.25.

Turning to `Cc1ccc(-n2nc(C(C)(C)C)cc2NC(=O)Nc2ccc(-c3ccc(N)nc3)cc2)cc1`, the logP in series [1] (read-out: logP) worked out at 5.13. Moreover, the logD in series [2] (read-out: logD) came to 3.88.

For `Cc1ccc(-n2nc(C(C)(C)C)cc2NC(=O)Nc2ccc(-c3ccncc3)cc2)cc1`, the logP in series [1] (read-out: logP) was more than 5. In addition, in series [2] (read-out: logD), the logD came to 3.58.

With `COc1cc(OC)nc(-c2ccc(NC(=O)Nc3cc(C(C)(C)C)nn3-c3ccc(C)cc3)cc2)n1`, in series [1] (read-out: logP), the logP is more than 5.4. Moreover, the logD in series [2] (read-out: logD) amounted to 3.94.

Consider `COc1ccc(-c2ccc(NC(=O)Nc3cc(C(C)(C)C)nn3-c3ccc(C)cc3)cc2)cn1`, for which the logP in series [1] (read-out: logP) came to 4.25. Besides, in series [2] (read-out: logD), the logD was 4.02.

Take `Cc1ccc(-n2nc(C(C)(C)C)cc2NC(=O)Nc2ccc(-c3ccc(OCc4ccccc4)nc3)cc2)cc1`: the logP in series [1] (read-out: logP) was more than 5.4. The logD in series [2] (read-out: logD) is 3.94.
